{"source": "paper PMC12566971", "about": "“Polyprenylated Acylphloroglucinols from Hypericum rochelii and Hypericum olympicum—Cytotoxic Effects on Non-Tumorigenic Cell Lines and Antibacterial Potential” (Pharmaceuticals, 2025)", "system": "CCL-1 and HGF cells", "assay": "Western blot for autophagy proteins Atg5, Atg7, LC3A/B", "format": "cell-based", "conditions": "24 h; erufosine 30 µM, HirDM90 IC50", "method": "For Western blot, CCL-1 and HGF cell lines were chosen, and they were seeded in either 6-well plates or 55 mm Petri dishes suitable for cell culture. They were treated with an exposure time of 24 h in an incubator (Panasonic MCO-18AC, Panasonic Healthcare Ltd., […], Japan). […] Hans-Jörg Eibl. In addition, a higher concentration of an […] added to one of the tests for comparison. The samples were trypsinized, collected, washed with PBS (TS1101, HiMedia, Mumbai, India), centrifuged, and frozen at -80 °C if storage was necessary. Then they were lysed on ice with a buffer containing 100 mM Tris-HCl (648313, Sigma-Aldrich, St. Louis, MO, USA) at pH 8.0, 4% sodium dodecyl sulfate (SDS, […], Sigma-Aldrich), 20% glycerol (49779, Sigma-Aldrich), 1% Na3VO4 (450243, Sigma-Aldrich), 200 mM dithiothreitol (DTT, 3483-12-3, Sigma-Aldrich, Burlington, MA, USA) supplemented with protease inhibitor (05892970001, Roche). The cell lysate was heated to boiling for 15 min, then centrifuged at 13,000 rpm for 10 min at 4 °C. Lysates were subjected to denaturing SDS polyacrylamide gel electrophoresis on acrylamide 4-20% gradient Mini-PROTEAN® TGXTM Stain-Free gels (4568094, Bio-Rad Laboratories, Hercules, CA, USA). […] Densitometric calculation and analysis was performed with Quantity One software version 4.6.9 (Bio-Rad Laboratories)."}
{"smiles": "CCCCCCCC/C=C\\CCCCCCCCCCCCOP(=O)([O-])OCC[N+](C)(C)C", "note": "[erufosine]", "values": [{"measurement": "Conversion of LC3A/B to the lower migrating form", "result": "converted to the lower migrating form visibly"}]}
